Like-named read-outs stand apart in the source and are kept apart here.
What was measured:
[1] = system: CFTR; assay type: cell-based, human; settings: no LV
Description: To analyse the functionality of rSIV.F/HN-CFTR-expressed channels, CFTR-mediated chloride current was measured in an Ussing chamber using rSIV.F/HN-CFTR (vGM058) transduced ALI cultures. First, sodium channels (ENaC) were blocked using amiloride, followed by stimulation of CFTR using forskolin and the change in short circuit current (Δlsc) was calculated (both peak and plateau values). In some experiments, ivacaftor, a small molecule CFTR potentiator which increases channel open probability, was added for additional stimulation of CFTR current. Finally, the chloride current was blocked with CFTR-Inhibitor 172 (FIG. 3D).
To compare the functionality of vGM058 and vGM244, CFTR-mediated chloride current was measured in an Ussing chamber using class II ALI cultures transduced with both vGM058 and vGM244.
To analyse the functionality of rSIV.F/HN-CFTR-expressed channels, CFTR-mediated chloride current was measured in an Ussing chamber using rSIV.F/HN-CFTR (vGM244) transduced class II ALI cultures (Table 3).

[2] = target: CFTR (Homo sapiens, UniProt P13569); assay type: cell-based; settings: no LV
[3] = Table 1, Class II F508del/F508del ALI, vGM058 study
[4] = Table 3, Class II F508del/F508del ALI, vGM244 study
[5] = Table 2, Class I CFTR KO ALI, vGM058 study
[6] = Table 4, Class I CFTR KO ALI, vGM244 study

CFTR (Homo sapiens, UniProt P13569), sequence (P13569 whole entry): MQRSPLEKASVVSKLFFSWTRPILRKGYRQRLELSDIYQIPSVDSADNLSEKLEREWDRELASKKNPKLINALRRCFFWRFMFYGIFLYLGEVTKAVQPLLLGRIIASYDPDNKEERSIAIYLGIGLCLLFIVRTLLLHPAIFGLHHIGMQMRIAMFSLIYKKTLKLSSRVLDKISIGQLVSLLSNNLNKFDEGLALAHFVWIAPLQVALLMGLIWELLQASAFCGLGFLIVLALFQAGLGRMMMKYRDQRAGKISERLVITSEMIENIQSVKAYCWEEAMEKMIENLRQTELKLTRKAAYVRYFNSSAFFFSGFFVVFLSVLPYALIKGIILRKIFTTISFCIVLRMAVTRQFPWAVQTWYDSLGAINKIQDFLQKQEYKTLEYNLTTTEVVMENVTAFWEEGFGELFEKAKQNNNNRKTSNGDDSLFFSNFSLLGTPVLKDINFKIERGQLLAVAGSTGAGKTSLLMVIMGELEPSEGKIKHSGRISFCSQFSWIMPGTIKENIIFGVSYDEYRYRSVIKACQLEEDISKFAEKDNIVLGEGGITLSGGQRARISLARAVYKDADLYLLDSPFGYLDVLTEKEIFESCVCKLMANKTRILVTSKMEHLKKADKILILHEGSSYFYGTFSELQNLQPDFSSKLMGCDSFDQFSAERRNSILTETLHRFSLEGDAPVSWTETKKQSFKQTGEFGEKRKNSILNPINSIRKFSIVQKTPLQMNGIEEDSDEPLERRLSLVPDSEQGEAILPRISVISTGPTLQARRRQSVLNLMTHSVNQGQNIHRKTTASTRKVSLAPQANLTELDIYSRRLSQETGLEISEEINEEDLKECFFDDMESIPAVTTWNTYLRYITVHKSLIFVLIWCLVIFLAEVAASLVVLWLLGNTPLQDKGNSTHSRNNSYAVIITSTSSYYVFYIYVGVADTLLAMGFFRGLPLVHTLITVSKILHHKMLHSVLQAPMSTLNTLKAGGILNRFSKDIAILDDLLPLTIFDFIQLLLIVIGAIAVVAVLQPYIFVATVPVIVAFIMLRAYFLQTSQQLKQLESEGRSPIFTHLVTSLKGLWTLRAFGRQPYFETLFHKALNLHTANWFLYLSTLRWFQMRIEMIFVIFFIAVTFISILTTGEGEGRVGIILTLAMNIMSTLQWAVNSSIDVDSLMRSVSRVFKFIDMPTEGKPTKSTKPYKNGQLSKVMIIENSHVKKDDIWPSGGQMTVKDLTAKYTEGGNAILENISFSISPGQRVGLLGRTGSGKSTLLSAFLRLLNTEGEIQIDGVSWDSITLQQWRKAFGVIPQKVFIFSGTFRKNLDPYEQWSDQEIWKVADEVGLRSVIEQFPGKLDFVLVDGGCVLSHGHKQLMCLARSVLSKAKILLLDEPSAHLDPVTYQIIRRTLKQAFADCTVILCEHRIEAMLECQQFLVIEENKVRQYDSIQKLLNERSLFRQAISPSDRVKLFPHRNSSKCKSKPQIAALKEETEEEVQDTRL

Work on `CC(C)(C)c1cc(C(C)(C)C)c(NC(=O)c2c[nH]c3ccccc3c2=O)cc1O` [Iva, ivacaftor] yielded a ΔCFTR-inh172peak [1, 3] of −2.1 ± 0.3, a ΔCFTR-inh172plateau [1, 3] of −2.1 ± 0.3 and a ΔFskpeak [1, 3] of −0.1 ± 0.3. It also gave a ΔFskplateau [1, 3] of −0.1 ± 0.3, a ΔCFTR-inh172peak [1, 4] of −1.6 ± 0.1 and a ΔCFTR-inh172plateau [1, 4] of −1.6 ± 0.1. For the same compound, the ΔFskpeak [1, 4] was 1.0 ± 0.3, the ΔFskplateau [1, 4] was 1.0 ± 0.3 and the ΔCFTR-inh172peak [2, 5] was −3.0 ± 0.2. It also gave a ΔCFTR-inh172plateau [2, 5] of −3.0 ± 0.2, a ΔFskpeak [2, 5] of −1.9 ± 0.1 and a ΔFskplateau [2, 5] of −1.9 ± 0.1. It also gave a ΔCFTR-inh172peak [2, 6] of −0.2 ± 0.2, a ΔCFTR-inh172plateau [2, 6] of −0.2 ± 0.2 and a ΔFskpeak [2, 6] of −0.7 ± 0.2. For the same compound, the ΔFskplateau [2, 6] was −0.7 ± 0.2.

From patent US20240024515A1, “COMBINATION TREATMENT” (priority 2022, published 2024)
